# Results: patent US8227429B2, “Macrolide synthesis process and solid-state forms” (Intervet International B.V., priority 2006, dated 2012)
# Counter-ions that a name gives are not always drawn. Like-named read-outs stand apart in the source and are kept apart here.
# What was measured:
# [1] = Dynamic vapor sorption (DVS) water uptake; format: physicochemical; conditions: 25° C.; for maximum water uptake: at 95% relative humidity
# Method: Dynamic vapor sorption (“DVS”) measurements were obtained with a Projekt Messtechnik SPS11-100n water vapor sorption analyzer. The samples were placed into aluminum crucibles on a microbalance, and allowed to equilibrate at 25° C. and 50% relative humidity before initiating the following pre-defined humidity program at 25° C.: 50-95-0-50% relative humidity, and scanning with a 5% change in relative humidity per hour and with iso-humid equilibration periods at extreme values.
# [2] = Relative solid-state stability (Applicants' observations); format: physicochemical
# [3] = Thermogravimetry coupled to FTIR (TG-FTIR); format: physicochemical
# Method: Measurements of thermogravimetry coupled to Fourier transform infrared spectroscopy (“TG-FTIR”) were obtained using a Netzsch Thermo-Microbalance TG 209 with a Bruker Vector 22 FT-IR Spectrometer using an aluminum crucible (with micro-hole or open), N2 atmosphere, heating rate of 10° C./min, and temperature range of 25-250° C.
# Thermogravimetry (TG) = format: physicochemical
# Method: Thermogravimetry (“TG”) measurements were obtained with a Perkin Elmer TGS 2 thermogravimetric analyzer using an aluminum crucible (open), N2 atmosphere, heating rate of 10° C./min, and temperature range of 25-500° C.
# [4] = Desolvation / stability on drying under vacuum
# Method: In one experiment, the S2 crystalline solvate was prepared by dissolving the Form II polymorph of 20,23-dipiperidinyl-5-O-mycaminosyl-tylonolide (245.7 mg) in tert-butyl methyl ether (0.5 ml), and slowly evaporating a portion of the solvent at ambient temperature. After no crystals formed, additional tert-butyl methyl ether was added, followed by seeding S2 solvate crystals from the first batch. The solvent was then allowed to evaporate completely. […] In further testing, the crystals were vacuum-dried at ambient temperature for 20 hours, and then dried again under vacuum for 24 hours at about 70° C.
# Solubility in tBME = format: physicochemical
compound,measurement,setting,value
CC[C@H]1OC(=O)C[C@@H](O)[C@H](C)[C@@H](OC2OC(C)C(O)C(N(C)C)C2O)[C@@H](CCN2CCCCC2)C[C@@H](C)C(=O)/C=C/C(C)=C/[C@@H]1CN1CCCCC1 (stereo in doubt) [Form I polymorph],maximum water uptake,[1],less than 1 % (by weight)
same,stability relative to other solid-state forms,[2],greater stability at ambient temperature than the other above-listed solid-state forms
same,weight loss,"[3]; temperature range of from 60 to 180° C., attributed to water loss",0.6%
CC[C@H]1OC(=O)C[C@@H](O)[C@H](C)[C@@H](OC2OC(C)C(O)C(N(C)C)C2O)[C@@H](CCN2CCCCC2)C[C@@H](C)C(=O)/C=C/C(C)=C/[C@@H]1CN1CCCCC1 (stereo in doubt) [Form II polymorph],maximum water uptake,[1],about 2 % (by weight)
same,temperature at which decomposition began,[3],greater than 220 °C
same,weight loss,"[3]; mainly in the temperature range of from 50 to 100° C., attributed to water loss",0.7%
CC[C@H]1OC(=O)C[C@@H](O)[C@H](C)[C@@H](OC2OC(C)C(O)C(N(C)C)C2O)[C@@H](CCN2CCCCC2)C[C@@H](C)C(=O)/C=C/C(C)=C/[C@@H]1CN1CCCCC1 (stereo in doubt) [Form III polymorph],water uptake,[1]; between 70 and 85% relative humidity,about 6%
same,weight loss,"[3]; up to 220° C., most between 50 and 120° C.",1.7%
same,temperature at which decomposition began,Thermogravimetry (TG),greater than 270 °C
same,weight loss,Thermogravimetry (TG); up to 200° C.,less than 0.05%
CC[C@H]1OC(=O)C[C@@H](O)[C@H](C)[C@@H](OC2OC(C)C(O)C(N(C)C)C2O)[C@@H](CCN2CCCCC2)C[C@@H](C)C(=O)/C=C/C(C)=C/[C@@H]1CN1CCCCC1 (stereo in doubt) [THF S3 crystalline solvate],weight loss due to liberation of solvent,[3]; at temperatures greater than 100° C.,about 8.1%
CC[C@H]1OC(=O)C[C@@H](O)[C@H](C)[C@@H](OC2OC(C)C(O)C(N(C)C)C2O)[C@@H](CCN2CCCCC2)C[C@@H](C)C(=O)/C=C/C(C)=C/[C@@H]1CN1CCCCC1 (stereo in doubt) [diethyl ketone S1 crystalline solvate],weight loss due to liberation of solvent,[3],10%
CC[C@H]1OC(=O)C[C@@H](O)[C@H](C)[C@@H](OC2OC(C)C(O)C(N(C)C)C2O)[C@@H](CCN2CCCCC2)C[C@@H](C)C(=O)/C=C/C(C)=C/[C@@H]1CN1CCCCC1 (stereo in doubt) [ethanol S1 crystalline solvate],weight loss due to liberation of solvent,[3]; up to 200° C.,approximately 6.6%
CC[C@H]1OC(=O)C[C@@H](O)[C@H](C)[C@@H](OC2OC(C)C(O)C(N(C)C)C2O)[C@@H](CCN2CCCCC2)C[C@@H](C)C(=O)/C=C/C(C)=C/[C@@H]1CN1CCCCC1 (stereo in doubt) [ethyl acetate S1 crystalline solvate],weight loss due to liberation of solvent,[3],approximately 4.1%
same,result of vacuum drying,[4]; ambient temperature,readily converted into the Form III polymorph
CC[C@H]1OC(=O)C[C@@H](O)[C@H](C)[C@@H](OC2OC(C)C(O)C(N(C)C)C2O)[C@@H](CCN2CCCCC2)C[C@@H](C)C(=O)/C=C/C(C)=C/[C@@H]1CN1CCCCC1 (stereo in doubt) [ethyl formate crystalline solvate],temperature at which desolvation was nearly completed,[3],~130 °C
same,weight loss due to liberation of solvent,[3],about 7.7%
CC[C@H]1OC(=O)C[C@@H](O)[C@H](C)[C@@H](OC2OC(C)C(O)C(N(C)C)C2O)[C@@H](CCN2CCCCC2)C[C@@H](C)C(=O)/C=C/C(C)=C/[C@@H]1CN1CCCCC1 (stereo in doubt) [tBME S2 crystalline solvate],solubility,Solubility in tBME; organic solvent or mixture,40 to 50 mg/mL
same,solubility in tBME relative to the Form II polymorph,Solubility in tBME; solvent tBME,at least one order of magnitude less
same,weight loss due to liberation of solvent,[3],8.7-10%
CC[C@H]1OC(=O)C[C@@H](O)[C@H](C)[C@@H](OC2OC(C)C(O)C(N(C)C)C2O)[C@@H](CCN2CCCCC2)C[C@@H](C)C(=O)/C=C/C(C)=C/[C@@H]1CN1CCCCC1 (stereo partly shown) [methyl acetate crystalline solvate],temperature at which desolvation was nearly completed,[3],~160 °C
same,weight loss due to liberation of solvent,[3],about 8.4%
CC[C@H]1OC(=O)C[C@@H](O)[C@H](C)[C@@H](OC2OC(C)C(O)C(N(C)C)C2O)[C@@H](CCN2CCCCC2)C[C@@H](C)C(=O)/C=C/C(C)=C/[C@@H]1CN1CCCCC1 (stereo partly shown) [tBME S2 crystalline solvate],stability relative to other solid-state forms,[2]; listed as tBME crystalline solvate,more stable than the ethyl acetate S1 crystalline solvate
same,stability,[4]; 60° C. at 1 mbar (absolute) for 1 day,exhibits stability
same,result of drying under vacuum,[4]; ambient temperature and 70° C.,no loss of solvent was observed
